Test results from patent US12209081B2 (Katholieke Universiteit Leuven, priority 2020, dated 2025).

Molecular target: mouse TRPM3α2 (mTRPM3) ion channel (Mus musculus (Mouse), UniProt J9SQF3)
Assay: TRPM3 ion channel driven Ca2+ uptake, Fluo-4 AM assay, mTRPM3alpha2 overexpressing flip-in HEK293 cells stimulated with pregnenolone sulfate
Format: cell-based
How it was run: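 Read-out is Ca2+ influx via Fluo-4 AM fluorescence at 485/535 nm, taken right after seeding ~2000 cells/well onto compound with 50 μM PS. Inhibition computed from RFU between vehicle-stimulated and positive-control-inhibitor wells; cells were mTRPM3α2-overexpressing flip-in HEK293.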

[1] = PS (50 μM) stimulated, cpds. 500-599
[2] = PS (50 μM) stimulated, cpd 001-199
[3] = PS (50 μM) stimulated, cpds. 400-499

mouse TRPM3α2 (mTRPM3) ion channel, sequence (J9SQF3 other isoform, or with tags, fused parts or gaps): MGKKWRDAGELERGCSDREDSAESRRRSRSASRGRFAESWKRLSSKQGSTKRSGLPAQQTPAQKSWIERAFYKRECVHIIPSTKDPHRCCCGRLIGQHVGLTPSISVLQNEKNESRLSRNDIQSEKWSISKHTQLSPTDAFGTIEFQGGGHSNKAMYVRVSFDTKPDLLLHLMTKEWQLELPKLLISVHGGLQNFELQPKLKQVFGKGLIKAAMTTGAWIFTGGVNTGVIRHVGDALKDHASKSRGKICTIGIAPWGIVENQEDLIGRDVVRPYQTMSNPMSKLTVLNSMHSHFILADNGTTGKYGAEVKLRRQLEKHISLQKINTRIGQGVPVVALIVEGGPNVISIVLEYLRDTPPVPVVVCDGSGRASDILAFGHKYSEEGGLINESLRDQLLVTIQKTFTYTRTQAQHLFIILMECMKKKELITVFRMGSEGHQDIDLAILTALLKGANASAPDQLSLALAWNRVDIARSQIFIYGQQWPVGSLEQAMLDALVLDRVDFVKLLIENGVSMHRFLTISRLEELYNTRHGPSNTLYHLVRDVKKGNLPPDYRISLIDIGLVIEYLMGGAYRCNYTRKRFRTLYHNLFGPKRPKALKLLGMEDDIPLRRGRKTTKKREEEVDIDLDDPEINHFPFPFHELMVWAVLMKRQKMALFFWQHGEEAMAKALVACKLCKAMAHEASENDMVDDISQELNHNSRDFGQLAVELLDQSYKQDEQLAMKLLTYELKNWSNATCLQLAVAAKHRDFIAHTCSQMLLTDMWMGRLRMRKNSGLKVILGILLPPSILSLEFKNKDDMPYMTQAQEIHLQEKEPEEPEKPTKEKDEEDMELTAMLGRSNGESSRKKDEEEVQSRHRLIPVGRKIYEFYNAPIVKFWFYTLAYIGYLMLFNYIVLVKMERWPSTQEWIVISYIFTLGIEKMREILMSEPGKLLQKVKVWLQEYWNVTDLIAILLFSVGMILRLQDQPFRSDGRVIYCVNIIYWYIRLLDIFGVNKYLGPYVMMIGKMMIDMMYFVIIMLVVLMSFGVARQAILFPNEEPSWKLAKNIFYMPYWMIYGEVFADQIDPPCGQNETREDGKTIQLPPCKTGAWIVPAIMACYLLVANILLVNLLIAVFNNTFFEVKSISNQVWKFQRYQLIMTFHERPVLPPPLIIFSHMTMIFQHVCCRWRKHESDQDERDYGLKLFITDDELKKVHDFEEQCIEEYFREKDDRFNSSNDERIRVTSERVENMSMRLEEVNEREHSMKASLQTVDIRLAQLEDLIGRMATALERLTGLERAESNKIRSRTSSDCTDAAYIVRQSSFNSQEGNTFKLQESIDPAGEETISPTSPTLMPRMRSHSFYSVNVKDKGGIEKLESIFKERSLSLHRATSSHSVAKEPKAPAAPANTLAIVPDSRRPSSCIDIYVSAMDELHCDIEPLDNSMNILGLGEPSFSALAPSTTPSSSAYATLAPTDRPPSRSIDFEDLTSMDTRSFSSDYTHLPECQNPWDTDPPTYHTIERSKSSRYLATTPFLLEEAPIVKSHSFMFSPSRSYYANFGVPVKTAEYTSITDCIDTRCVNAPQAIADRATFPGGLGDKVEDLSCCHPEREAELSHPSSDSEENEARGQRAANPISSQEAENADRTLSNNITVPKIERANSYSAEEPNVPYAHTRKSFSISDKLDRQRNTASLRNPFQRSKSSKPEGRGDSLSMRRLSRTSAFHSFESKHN

Structure (SMILES): Cc1oc2ccc(OCc3ncccn3)cc2c1C(=O)NC1CCNCC1(F)F (single isomer, unassigned) [cpd 559-En 1]
- IC50 [1]: 1 to 20 µM

Structure (SMILES): Cc1oc2ccc(OCc3cccnc3C(F)(F)F)cc2c1C(=O)NC1CCNCC1(F)F (single isomer, unassigned) [cpd 539-En 1]
- IC50 [1]: 1 to 20 µM

Structure (SMILES): Cc1ncsc1COc1ccc2oc(C)c(C(=O)Nc3ccnn3C)c2c1 [compound 171, 2-methyl-N-(1-methyl-1H-pyrazol-5-yl)-5-((4-methylthiazol-5-yl)methoxy)benzofuran-3-carboxamide]
- IC50 [2]: < 1 µM

Structure (SMILES): Cc1ncc(COc2ccc3oc(C)c(C(=O)NC4(C(F)F)CCC4)c3c2)s1 [compound 683, N-(1-(Difluoromethyl)cyclobutyl)-2-methyl-5-((2-methylthiazol-5-yl)methoxy)benzofuran-3-carboxamide]
- IC50 (PS (50 μM) stimulated, cpds. 667-751): < 1 µM

Structure (SMILES): Cc1ncsc1COc1ccc2oc(C)c(C(=O)NC(CO)C(=O)O)c2c1 (single isomer, unassigned) [cpd 270-En 1]
- IC50 (PS 50 μM, cpds 200-299): > 20 µM

Structure (SMILES): Cc1oc2ccc(OCc3cccnc3C(F)(F)F)cc2c1C(=O)NC1CCN(CC(F)(F)F)CC1 [compound 168, 2-methyl-N-(1-(2,2,2-trifluoroethyl)piperidin-4-yl)-5-((2-(trifluoromethyl)pyridin-3-yl)methoxy) -benzofuran-3-carboxamide]
- IC50 [2]: < 1 µM

Structure (SMILES): Cc1cc2oc(C)c(C(=O)NC3CCNCC3(F)F)c2cc1OCc1cccnc1C(F)(F)F (single isomer, unassigned) [179-En 1, N-(3,3-difluoropiperidin-4-yl)-2,6-dimethyl-5-((2-(trifluoromethyl)pyridin-3-yl)methoxy)benzo-furan-3-carboxamide]
- IC50 [2]: 1 to 20 µM

Structure (SMILES): Cc1ncsc1COc1cc(F)c2oc(C)c(C(=O)NC3CCNCC3(F)F)c2c1 (single isomer, unassigned) [cpd 573-En 2]
- IC50 [1]: 1 to 20 µM

Structure (SMILES): Cc1ncc(COc2ccc3oc(C)c(C(=O)NCC4(F)COC4)c3c2)s1 [compound 384, N-((3-fluorooxetan-3-yl)methyl)-2-methyl-5-((2-methylthiazol-5-yl)methoxy)benzofuran-3-carboxamide]
- IC50 (PS 50 μM, cpds 300-399): < 1 µM

Structure (SMILES): Cc1ncsc1COc1ccc2oc(C)c(C(=O)N[C@@H](C(N)=O)C(C)C)c2c1 [compound 273, (R)-N-(1-amino-3-methyl-1-oxobutan-2-yl)-2-methyl-5-((4-methylthiazol-5-yl)methoxy)benzofuran-3-carboxamide]
- IC50 (PS 50 μM, cpds 200-299): < 1 µM

Structure (SMILES): Cc1cc(COc2ccc3oc(C)c(C(=O)NC4CCNCC4(F)F)c3c2)no1 (single isomer, unassigned) [cpd 553-En 1]
- IC50 [1]: < 1 µM

Structure (SMILES): COc1ncccc1COc1ccc2oc(C)c(C(=O)NC3(C(N)=O)CCC3)c2c1 [compound 474, N-(1-carbamoylcyclobutyl)-5-((2-methoxypyridin-3-yl)methoxy)-2-methylbenzofuran-3-carboxamide]
- IC50 [3]: < 1 µM

Structure (SMILES): Cc1oc2ccc(OCc3cccnc3C(F)(F)F)cc2c1C(=O)NC1(CO)CCC1 [compound 117, N-(1-(hydroxymethyl)cyclobutyl)-2-methyl-5-((2-(trifluoromethyl)pyridin-3-yl)methoxy)benzofuran-3-carboxamide]
- IC50 [2]: < 1 µM

Structure (SMILES): O=C(NC1(CO)CCOCC1)c1c(C(F)F)oc2ccc(OCc3cccnc3O)cc12 [compound 311, 2-(difluoromethyl)-N-(4-(hydroxymethyl)tetrahydro-2H-pyran-4-yl)-5-((2-oxo-1,2-dihydropyridin-3-yl)methoxy)benzofuran-3-carboxamide]
- IC50 (PS 50 μM, cpds 300-399): < 1 µM

Structure (SMILES): Cc1oc2ccc(OCc3ccnn3CC(F)F)cc2c1C(=O)NC1(CO)CCCNC1=O (single isomer, unassigned) [332-En 1, 5-((1-(2,2-difluoroethyl)-1H-pyrazol-5-yl)methoxy)-N-(3-(hydroxymethyl)-2-oxopiperidin-3-yl)-2-methylbenzofuran-3-carboxamide]
- IC50 (PS 50 μM, cpds 300-399): < 1 µM

Structure (SMILES): Cc1ncsc1COc1ccc2oc(C)c(C(=O)N[C@H](C(N)=O)C(C)C)c2c1 [compound 304, (S)-N-(1-amino-3-methyl-1-oxobutan-2-yl)-2-methyl-5-((4-methylthiazol-5-yl)methoxy)benzofuran-3-carboxamide]
- IC50 (PS 50 μM, cpds 300-399): < 1 µM

Structure (SMILES): Cc1ncsc1COc1ccc2oc(C)c(C(=O)NC3(C(N)=O)COC3)c2c1 [compound 119, N-(3-carbamoyloxetan-3-yl)-2-methyl-5-((4-methylthiazol-5-yl)methoxy)benzofuran-3-carboxamide]
- IC50 [2]: < 1 µM

Structure (SMILES): Cc1oc2ccc(OCc3cccnc3C(F)(F)F)cc2c1C(=O)NC1(CO)CCCOC1 (single isomer, unassigned) [cpd 531-En 1]
- IC50 [1]: < 1 µM

Structure (SMILES): Cc1ncsc1COc1ccc2oc(C)c(C(=O)NCC(C)(C)C(N)=O)c2c1 [compound 576, N-(3-amino-2,2-dimethyl-3-oxopropyl)-2-methyl-5-((4-methylthiazol-5-yl)methoxy)benzofuran-3-carboxamide]
- IC50 [1]: < 1 µM

Structure (SMILES): Cc1ncsc1COc1ccc2oc(C)c(C(=O)NC3COCC3O)c2c1 (single isomer, unassigned; dia 1) [162-Dia 1-En2]
- IC50 [2]: < 1 µM

Structure (SMILES): Cc1cnc(COc2ccc3oc(C)c(C(=O)NC4CCNCC4(F)F)c3c2)cn1 (single isomer, unassigned) [cpd 554-En 2]
- IC50 [1]: > 20 µM

Structure (SMILES): Cc1oc2ccc(OCc3ccccn3)cc2c1C(=O)NC1(CO)CCC1 [compound 415, N-(1-(hydroxymethyl)cyclobutyl)-2-methyl-5-(pyridin-2-ylmethoxy)benzofuran-3-carboxamide]
- IC50 [3]: < 1 µM

Structure (SMILES): Cc1oc2ccc(OCc3ccnn3C)cc2c1C(=O)NC1CCNCC1(F)F (single isomer, unassigned) [cpd 543-En 1]
- IC50 [1]: < 1 µM

Structure (SMILES): Cc1oc2ccc(OCc3cccnc3C(F)F)cc2c1C(=O)NC1CCNCC1(F)F (single isomer, unassigned) [cpd 342-En 1]
- IC50 (PS 50 μM, cpds 300-399): < 1 µM

Structure (SMILES): Cc1ncsc1COc1ccc2oc(C)c(C(=O)NC3CCN(CCO)C3=O)c2c1 (single isomer, unassigned) [160-En 1, N-(1-(2-hydroxyethyl)-2-oxopyrrolidin-3-yl)-2-methyl-5-((4-methylthiazol-5-yl)methoxy)benzo-furan-3-carboxamide]
- IC50 [2]: < 1 µM

Structure (SMILES): Cc1oc2ccc(OCc3nccn3C)cc2c1C(=O)NC1CNCCC1(F)F (single isomer, unassigned) [cpd 635-En 2]
- IC50 (PS (50 μM) stimulated, cpds. 608-666): 1 to 20 µM

Structure (SMILES): Cc1oc2ccc(OCc3cccnc3)cc2c1C(=O)NC1CCNC1=O (stereo not drawn) [compound 027, 2-methyl-N-(2-oxopyrrolidin-3-yl)-5-(pyridin-3-ylmethoxy)benzofuran-3-carboxamide]
- IC50 [2]: < 1 µM

Structure (SMILES): Cc1oc2ccc(OCc3nccs3)cc2c1C(=O)N[C@H]1CCNC1 [compound 025, (S)-2-methyl-N-(pyrrolidin-3-yl)-5-(thiazol-2-ylmethoxy)benzofuran-3-carboxamide]
- IC50 [2]: < 1 µM

Structure (SMILES): Cc1ncsc1COc1ccc2oc(C)c(C(=O)NC3CN(C(=O)OCC(F)(F)F)CC3(F)F)c2c1 (single isomer, unassigned) [172-En 1, 2,2,2-trifluoroethyl 3,3-difluoro-4-(2-methyl-5-((4-methylthiazol-5-yl)methoxy)benzofuran-3-carboxamido)pyrrolidine-1-carboxylate]
- IC50 [2]: < 1 µM

Structure (SMILES): COc1ncccc1COc1ccc2oc(C)c(C(=O)NC3(CO)CCC3)c2c1 [compound 417, N-(1-(hydroxymethyl)cyclobutyl)-5-((2-methoxypyridin-3-yl)methoxy)-2-methylbenzofuran-3-carboxamide]
- IC50 [3]: < 1 µM
